Laboratory results as given in patent US20230203081A1, “LINCOSAMIDE ANTIBIOTICS AND USES THEREOF” (President and Fellows of Harvard College, priority 2020, published 2023).
In brackets after ≈: the same amount, converted by molar mass. Like-named read-outs stand apart in the source and are kept apart here.

Legend:
Assay type in all cases: cell-based
[1] = tested on: broad panel of different clinical isolates; assay: microbe, parasite or virus in culture
Method: (§1) Minimum inhibitory concentrations (MICs) were determined by broth microdilution method or agar dilution method following the Clinical and Laboratory Standards Institute guidelines. Standard bacterial strains were obtained from American Type Culture Collection (ATCC). Other bacterial strains were obtained from hospitals and commercial sources, so noted in Table 11. […] Specialized procedures were employed for streptococcal and anaerobic strains. All other bacterial strains were sub-cultured on blood agar plates (tryptic soy agar with 5% sheep blood, Hardy Diagnostics) and incubated overnight at 35° C. […] Suspensions were further diluted to obtain a final inoculum of 5×10^5 CFU/mL for broth microdilution experiments.

E. coli ΔTolC = assay: microbe, parasite or virus in culture
Method: as §1

S. pneumoniae ATCC 49619 = assay: MIC (broth microdilution or agar dilution, CLSI)
Method: as §1

S. aureus ATCC 29213 = assay: MIC (broth microdilution or agar dilution, CLSI)
Method: as §1

K. oxytoca Clinical = assay: MIC (broth microdilution or agar dilution, CLSI)
Method: as §1

S. aureus MMX 3035 cErmA = assay: MIC (broth microdilution or agar dilution, CLSI); conditions: Staphylococcus aureus, MMX3035CERMA; S. aureus HAV#031, MMX 3035; cErmA; read-out: MIC
Method: as §1

E. faecalis ATCC 29212 = assay: MIC (broth microdilution or agar dilution, CLSI)
Method: as §1

E. coli LptD = assay: MIC (broth microdilution or agar dilution, CLSI)
Method: as §1

S. pyogenes ATCC 19615 = assay: MIC (broth microdilution or agar dilution, CLSI)
Method: as §1

E. coli ATCC 25922 = assay: MIC (broth microdilution or agar dilution, CLSI)
Method: as §1

S. aureus cErmA = assay: MIC (broth microdilution or agar dilution, CLSI); conditions: S. aureus cErmA
Method: (§2) Minimum inhibitory concentrations (MICs) were determined by broth microdilution method or agar dilution method following the Clinical and Laboratory Standards Institute guidelines. Standard bacterial strains were obtained from American Type Culture Collection (ATCC). Other bacterial strains were obtained from hospitals and commercial sources, so noted in Table 11. Before the start of the MIC experiment, standard and test compound stock solutions were prepared in dimethyl sulfoxide (DMSO, Aldrich D2650) at a stock concentration of 5,120 μg/mL. The compound concentration range typically employed for each experiment was 128-0.06 μg/mL (2.5% final DMSO concentration). Clindamycin was used as a comparator in all experiments and each experiment was performed in triplicate. Specialized procedures were employed for streptococcal and anaerobic strains. All other bacterial strains were sub-cultured on blood agar plates (tryptic soy agar with 5% sheep blood, Hardy Diagnostics) and incubated overnight at 35° C. Organisms were suspended in cation-adjusted Mueller-Hinton broth (CaMHB, BD 212322) and optical density was adjusted to 0.5 McFarland standard. Suspensions were further diluted to obtain a final inoculum of 5×10^5 CFU/mL for broth microdilution experiments.

E. faecium Clinical VRE = assay: MIC (broth microdilution or agar dilution, CLSI); conditions: E. faecium Clinical VRE
Method: as §2

P. aeruginosa ATCC 27853 = assay: MIC (broth microdilution or agar dilution, CLSI); conditions: P. aeruginosa ATCC 27853
Method: as §2

A. baumannii ATCC 19606 = assay: MIC (broth microdilution or agar dilution, CLSI); conditions: A. baumannii ATCC 19606
Method: as §1

[2] = Staphylococcus aureus, read-out: MIC
[3] = Enterococcus faecium, read-out: MIC
[4] = Escherichia coli, E. coli ΔTolC
[5] = Streptococcus pneumoniae, ATCC49619, S. pneumoniae ATCC 49619, read-out: MIC
[6] = Staphylococcus aureus, ATCC29213, S. aureus ATCC 29213, read-out: MIC
[7] = Klebsiella oxytoca, K. oxytoca Clinical, read-out: MIC
[8] = Enterococcus faecalis, ATCC29212, E. faecalis ATCC 29212, read-out: MIC
[9] = Escherichia coli, E. coli LptD, read-out: MIC
[10] = Streptococcus pyogenes, ATCC19615, S. pyogenes ATCC 19615, read-out: MIC
[11] = Escherichia coli, ATCC25922, E. coli ATCC 25922, read-out: MIC

SMILES	MIC (S. aureus cErmA; [2]) [µg/mL]	MIC (E. faecium Clinical VRE; [3]) [µg/mL]	MIC (E. coli ΔTolC; [4]) [µg/mL]	MIC (S. pneumoniae ATCC 49619; [5]) [µg/mL]	MIC (S. aureus ATCC 29213; [6]) [µg/mL]	MIC (K. oxytoca Clinical; [7]) [µg/mL]	MIC (E. faecalis ATCC 29212; [8]) [µg/mL]	MIC (E. coli LptD; [9]) [µg/mL]	MIC (S. pyogenes ATCC 19615; [10]) [µg/mL]	MIC (E. coli ATCC 25922; [11]) [µg/mL]	also measured
O=C(N[C@H](CO)[C@H](O)c1ccc([N+](=O)[O-])cc1)C(Cl)Cl [Chloramphenicol]											MIC ([1]; Enterococcus faecalis, VRE, E. faecalis HAV#251, Clinical VRE): 4 µg/mL (≈ 12.4 µM); MIC ([1]; Enterococcus faecium, VRE, E. faecium HAV#318, VanA): 8 µg/mL (≈ 24.8 µM); MIC ([1]; Klebsiella pneumoniae, K. pneumoniae HAV#041, Clinical, KPC): > 128 µg/mL; MIC ([1]; Staphylococcus aureus, S. aureus HAV#216, Clinical, cfr): > 128 µg/mL; MIC ([1]; Staphylococcus aureus, S. aureus HAV#217, cfr): > 128 µg/mL; MIC ([1]; Staphylococcus epidermidis, S. epidermidis HAV# 275 Clinical, cfr): > 128 µg/mL; MIC ([1]; Staphylococcus epidermidis, S. epidermidis HAV# 276, cfr): > 128 µg/mL; MIC (E. coli ΔTolC; Escherichia coli, E. coli HAV#038, ΔTolC): 8 µg/mL (≈ 24.8 µM); MIC (S. pneumoniae ATCC 49619; Streptococcus pneumoniae, ATCC49619, S. pneumoniae HAV#003, ATCC 49619, read-out: MIC): 4 µg/mL (≈ 12.4 µM); MIC (S. aureus ATCC 29213; Staphylococcus aureus, ATCC29213, S. aureus HAV#001, ATCC 29213, MP-549, read-out: MIC): 8 µg/mL (≈ 24.8 µM); MIC (K. oxytoca Clinical; Klebsiella oxytoca, K. oxytoca HAV#450, Clinical, read-out: MIC): 8 µg/mL (≈ 24.8 µM); MIC (S. aureus MMX 3035 cErmA): 16 µg/mL (≈ 49.5 µM); MIC (E. faecalis ATCC 29212; Enterococcus faecalis, ATCC29212, E. faecalis HAV#005, ATCC 29212, read-out: MIC): 8 µg/mL (≈ 24.8 µM); MIC (E. coli LptD; Escherichia coli, E. coli HAV#040, LptD, read-out: MIC): 4 µg/mL (≈ 12.4 µM); MIC (S. pyogenes ATCC 19615; Streptococcus pyogenes, ATCC19615, S. pyogenes HAV#004, ATCC 19615, read-out: MIC): 4 µg/mL (≈ 12.4 µM); MIC (E. coli ATCC 25922; Escherichia coli, ATCC25922, E. coli HAV#006, ATCC 25922, read-out: MIC): 8 µg/mL (≈ 24.8 µM)
CS[C@H]1O[C@H]([C@H](NC(=O)[C@H]2NC[C@@H]3C[C@H](CC(C)C)CCO[C@H]32)[C@H](C)Sc2ccc(CN3CCCCC3)cc2)[C@H](O)[C@H](O)[C@H]1O [FSA-09-05-077, (4S,5aS,8S,8aR)-4-Isobutyl-N-((1S,2S)-2-((4-(piperidin-1-ylmethyl)phenyl)thio)-1-((2R,3R,4S,5R,6R)-3,4,5-trihydroxy-6-(methylthio)tetrahydro-2H-pyran-2-yl)propyl)octahydro-2H-oxepino[2,3-c]pyrrole-8-carboxamide]	4 (≈ 6.01 µM)	1 (≈ 1.5 µM)	4 (≈ 6.01 µM)	0.25 (≈ 0.375 µM)	2 (≈ 3 µM)	1 (≈ 1.5 µM)	1 (≈ 1.5 µM)	1 (≈ 1.5 µM)	0.125 (≈ 0.188 µM)	16 (≈ 24 µM)	
CS[C@H]1O[C@H]([C@H](NC(=O)[C@H]2NC[C@@H]3C[C@H](CC(C)C)CCO[C@H]32)[C@H](C)Sc2ccc(CN3CCCC3)cc2)[C@H](O)[C@H](O)[C@H]1O [FSA-09-05-078, (4S,5aS,8S,8aR)-4-Isobutyl-N-((1S,2S)-2-((4-(pyrrolidin-1-ylmethyl)phenyl)thio)-1-((2R,3R,4S,5R,6R)-3,4,5-trihydroxy-6-(methylthio)tetrahydro-2H-pyran-2-yl)propyl)octahydro-2H-oxepino[2,3-c]pyrrole-8-carboxamide]	4 (≈ 6.14 µM)	1 (≈ 1.53 µM)	4 (≈ 6.14 µM)	0.25 (≈ 0.383 µM)	2 (≈ 3.07 µM)	2 (≈ 3.07 µM)	1 (≈ 1.53 µM)	2 (≈ 3.07 µM)	0.125 (≈ 0.192 µM)	16 (≈ 24.5 µM)	
CNCc1ccc(S[C@@H](C)[C@@H](NC(=O)[C@H]2NC[C@@H]3C[C@H](CC(C)C)CCO[C@H]32)[C@H]2O[C@H](SC)[C@H](O)[C@@H](O)[C@H]2O)cc1 [FSA-09-05-079, (4S,5aS,8S,8aR)-4-Isobutyl-N-((1S,2S)-2-((4-((methylamino)methyl)phenyl)thio)-1-((2R,3R,4S,5R,6R)-3,4,5-trihydroxy-6-(methylthio)tetrahydro-2H-pyran-2-yl)propyl)octahydro-2H-oxepino[2,3-c]pyrrole-8-carboxamide]	8 (≈ 13.1 µM)	4 (≈ 6.54 µM)	1 (≈ 1.63 µM)	0.5 (≈ 0.817 µM)	1 (≈ 1.63 µM)	16 (≈ 26.1 µM)	0.5 (≈ 0.817 µM)	1 (≈ 1.63 µM)	0.5 (≈ 0.817 µM)	16 (≈ 26.1 µM)	
CSC1O[C@H]([C@H](NC(=O)[C@H]2NC[C@@H]3C[C@H](CC(F)F)CCO[C@H]32)[C@H](C)Cl)C(O)[C@@H](O)[C@H]1O (some centres unmarked) [FSA-10-09-093]											MIC (P. aeruginosa ATCC 27853): >128 µg/mL; MIC (S. aureus cErmA): 32 µg/mL (≈ 63.6 µM); MIC (E. faecium Clinical VRE): 8 µg/mL (≈ 15.9 µM); MIC (E. coli ΔTolC; E. coli ΔTolC): 1 µg/mL (≈ 1.99 µM); MIC (S. pneumoniae ATCC 49619; S. pneumoniae ATCC 49619): 0.5 µg/mL (≈ 0.994 µM); MIC (A. baumannii ATCC 19606): 128 µg/mL (≈ 254 µM); MIC (S. aureus ATCC 29213; S. aureus ATCC 29213): 0.25 µg/mL (≈ 0.497 µM); MIC (K. oxytoca Clinical; K. oxytoca Clinical): 16 µg/mL (≈ 31.8 µM); MIC (E. faecalis ATCC 29212; E. faecalis ATCC 29212): 0.25 µg/mL (≈ 0.497 µM); MIC (E. coli LptD; E. coli LptD): 4 µg/mL (≈ 7.95 µM); MIC (S. pyogenes ATCC 19615; S. pyogenes ATCC 19615): 0.5 µg/mL (≈ 0.994 µM); MIC (E. coli ATCC 25922; E. coli ATCC 25922): 16 µg/mL (≈ 31.8 µM)
CCCC[C@@H]1CCO[C@@H]2[C@H](CN[C@@H]2C(=O)N[C@H]([C@H](C)Cl)[C@H]2OC(SC)[C@H](O)C(O)C2O)C1 (some centres unmarked) [FSA-12-03-029]	8 (≈ 16.2 µM)	8 (≈ 16.2 µM)	4 (≈ 8.08 µM)	0.06 (≈ 0.121 µM)	0.25 (≈ 0.505 µM)	32 (≈ 64.6 µM)	0.25 (≈ 0.505 µM)	4 (≈ 8.08 µM)	0.06 (≈ 0.121 µM)	16 (≈ 32.3 µM)	
